According to PubChem BioAssay AID743417 (Broad Institute, 2014):
Inconclusive results are not listed. Calls of active or inactive are those of the source.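 How the source made its calls: active means compounds lowering the luciferase signal with a fitted half-maximal dose at most twice their top valid dose (cut at about 30 µM in these data); inconclusive means flat fits with moderate signal loss, or poor fits; inactive means the rest.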

Test system: Clone20 osteoblast Shn3 3'UTR firefly luciferase, 24 h
Test: Shn3 3'UTR reporter inhibitors, dose response, cell-based, Clone20 osteoblasts, luminescence, dry powder, set 2 (AID 743417)

SMILES	AC50
O=c1c2ccccc2nc2n1C(CSCc1ccc(Cl)cc1Cl)CS2 (configuration not stated)	1.45 µM
O=C(Nc1cccc(S(=O)(=O)Nc2ccc(Cl)cc2)c1)c1ccc(Cl)nc1	0.606 µM
COC(=O)C1=C(c2ccc(F)cc2OCc2ccccc2)C[C@@H]2CC[C@H]1N2C(=O)NCc1ccc(C(F)(F)F)cc1	9.14 µM
Cc1ccc(-n2c(Cl)c(Cl)nc(Cl)c2=O)cc1	1.77 µM
COc1ccc(CNc2ncnc3sccc23)cc1OC	2.34 µM
Oc1cccc2cc(Nc3ccccc3)cnc12	0.644 µM
CN(Cc1ccccc1)C(=O)c1cccc(NC(=O)Cc2ccc([N+](=O)[O-])cc2)c1	16.8 µM
CC(C)C(=O)NC(c1cccc([N+](=O)[O-])c1)c1ccc2cccnc2c1O (configuration not stated)	2.57 µM
COc1cccc(CNCCc2c[nH]c3ccccc23)c1OCc1ccccc1	4.09 µM
Cc1ccc(C)c(S(=O)(=O)N2CCN(Cc3ccc(O)c4ncccc34)CC2)c1	2.84 µM
O=C(/C=C/c1ccc(O)c(O)c1)OCCc1ccccc1	0.877 µM
C[C@@H]1C[C@@H]([C@H](O)CC2CC(=O)NC(=O)C2)C(=O)[C@@H](C)C1	0.345 µM
CC(C)c1nnc(NC(=O)CCS(=O)(=O)c2nc(-c3cccs3)cc(C(F)(F)F)n2)s1	3.02 µM
COc1cccc(CNc2ncnc3cc(Cl)ccc23)c1	3.73 µM
CCN(C(=O)C1CCN(c2nc(-c3ccc(OC)cc3)no2)CC1)c1ccc(OC)cc1	3.17 µM
Fc1ccc2[nH]c3c(NCc4ccccc4)ncnc3c2c1	3.09 µM
CC1(C)CC2CC(C)(CN2c2ncnc3ccc(Br)cc23)C1 (configuration not stated)	2.11 µM
O=C(NC1CCCCCCC1)c1cc(COc2ccc3ncccc3c2)on1	1.06 µM
CN(Cc1ccc(Cl)c(Cl)c1)C(=O)c1cccc(S(=O)(=O)N2CCN(Cc3ccccc3)CC2)c1	3.47 µM
CCOc1cc2c(cc1OCC)-n1cccc1C(c1ccc(C(C)C)cc1)NC2 (configuration not stated)	7.22 µM
O=[N+]([O-])c1cc2c(c(CSc3nnc(Nc4ccccc4)s3)c1)OCOC2	3.62 µM
CC(C)(C)n1nnnc1C(c1ccc(C(F)(F)F)cc1)N(Cc1ccccc1)Cc1ccco1 (configuration not stated)	4.74 µM
Cc1sc2ncnc(N3CCN(S(=O)(=O)c4ccc(Br)cc4)CC3)c2c1C	3.59 µM
Cc1nn(C)c(C(=O)NCc2ccc(Cl)cc2)c1Cl	1.74 µM
N#CC(c1cccc(Cl)c1)c1ccc2c(C(F)(F)F)cc(C(F)(F)F)nc2n1 (configuration not stated)	0.689 µM
CCOc1ccc(CCN2C(=S)N([C@@H](CC(C)C)CN3CCCC3CN3C(=S)NC[C@@H]3Cc3ccc(O)cc3)C[C@@H]2Cc2ccc(O)cc2)cc1 (some centres not stated)	11.5 µM

SMILES	AC50
Cc1cccc(C)c1-n1nnnc1C(c1cc2ccccc2o1)N1CCC(n2c(=O)[nH]c3ccccc32)CC1 (configuration not stated)	3.05 µM
CC(C)[C@H](NC(=O)OC(C)(C)C)c1nnc(S(=O)(=O)Cc2c(F)cccc2Cl)o1	1.08 µM
C#CC(=O)N(c1ccc(OC)c(OC)c1)C(C(=O)NC1CCCC1)c1cccs1 (configuration not stated)	3.32 µM
CSc1cccc(NS(=O)(=O)c2ccc3c(c2)CCN3C(C)=O)c1	1.49 µM
Cn1cc(CN(CCO)Cc2cccs2)c(-c2cccc(Cl)c2)n1	3.25 µM
Nc1nonc1C(=O)NCCNCc1cc(Br)ccc1OCc1ccccc1F	2.5 µM
Cc1cccc(C)c1NC(=O)CN(C)C(=O)c1cccc(S(=O)(=O)N2CCN(c3ccc(F)cc3)CC2)c1	2.2 µM
CC1Sc2ccc(S(=O)(=O)N3CCC(C(=O)Nc4cccc(Cl)c4)CC3)cc2NC1=O (configuration not stated)	3.27 µM
Cc1ccc(S(=O)(=O)CCC(=O)OCC(=O)Nc2cc(S(=O)(=O)N3CCOCC3)ccc2C)cc1	17.8 µM
CC(C)(C)n1nnnc1C(c1ccc(C(F)(F)F)cc1)N(Cc1ccc(F)cc1)Cc1ccco1 (configuration not stated)	10.1 µM
COc1ccc(NS(=O)(=O)c2ccc3ccccc3c2)c2ncccc12	4.82 µM
c1ccc(CCNc2ccnc3cc4ccccc4cc23)cc1	1.62 µM
COc1ccc(OCC(=O)NNC(=S)NC(=O)c2ccc(Br)o2)cc1	5.27 µM
CCOc1cccc(CNCCc2c(C)[nH]c3ccc(OC(F)(F)F)cc23)c1O	0.611 µM
OCc1ccc(O)c2ncccc12	1.66 µM
NC(=O)CC(NC(=O)c1ccc(Br)cc1)c1ccc(N2CCCCCC2)c([N+](=O)[O-])c1 (configuration not stated)	7.66 µM
CS(=O)(=O)c1ncc(Cl)c(C(=O)Nc2ccc(N3CCOCC3)cc2)n1	1.21 µM
CCc1nnc(NC(=O)c2nc(S(=O)(=O)Cc3cccc(C)c3)ncc2Cl)s1	2.51 µM
CN(Cc1ccc(OC(F)F)cc1)C(=O)c1cccc(S(=O)(=O)N2CCN(Cc3ccccc3)CC2)c1	2.37 µM
O=C1[C@H]2[C@@H](c3ccc(F)cc3)N3C(=O)N(c4ccccc4)C(=O)[C@@]3(Cc3ccccc3)[C@H]2C(=O)N1C1CCCCC1	> 70 µM (inactive)
CCc1ccc(NC(=O)c2nc(S(=O)(=O)Cc3ccccc3)ncc2Cl)cc1	0.551 µM
O=[N+]([O-])c1c(NCCO)cc(Sc2nc3ccccc3s2)c2nonc12	1.64 µM
S=C(NCCCCN(Cc1ccc(Cl)cc1)c1ccc(Br)cn1)NCCCc1cnc[nH]1	7.24 µM
CC(C)c1ccc(/C=C(\c2nc3ccccc3[nH]2)S(=O)(=O)c2ccccc2)cc1	4.01 µM
CCCCOc1ccc(Br)cc1CSC(=N)N	1.37 µM
O=C(Nc1nc(-c2ccccn2)cs1)c1cccc(S(=O)(=O)N2CCOCC2)c1	1.52 µM

SMILES	AC50
O=C(c1ccccc1)c1ccccc1N1C(=O)C=CC1=O	16.7 µM
CCOC(=O)c1ccc(NC(=O)c2nc(S(=O)(=O)Cc3ccccc3)ncc2Cl)cc1	0.572 µM
O=C1C=CC(=O)N1CCNc1ncc(C(F)(F)F)cc1Cl	0.947 µM
CC1C(OC(=O)CCC(=O)NC(C)(C)CO)O[C@H]2OC3(C)CC[C@H]4[C@H](C)CCC1C24OO3 (some centres not stated)	0.495 µM
CC(C)(O)C#Cc1ccc([C@@H]2C[C@H]3CN(c4ccccc4)C(=O)[C@]34CCCN24)s1	4.93 µM
Cn1c(SCc2cccc(Br)c2)nc2ccccc2c1=O	7.68 µM
CC(C)C[C@@H](CO)N(Cc1ccccc1)S(=O)(=O)N(Cc1ccccc1)[C@H](CO)CC(C)C	10.1 µM
C=C1C(=O)OC2CC1C(OC(C)=O)CC(C)=CCCC(C)=CCCC2(C)O (configuration not stated)	0.91 µM
CC1C(=O)N(Cc2cn(CCC3OCCCO3)nn2)CCS(=O)(=O)N1Cc1ccc(-c2ccc(Cl)c(Cl)c2)cc1 (configuration not stated)	3.39 µM
CCN(CC)S(=O)(=O)c1ccc(-c2ccc(S(=O)(=O)N(CC)CC)cc2)cc1	3.81 µM
CCOc1cc(N2CCOCC2)c(OCC)cc1NC(=O)c1cc(-c2ccco2)nc2ccccc12	8.94 µM
CCC12CN(S(=O)(=O)c3ccc(C)cc3)CC(CC)(CN(S(=O)(=O)c3ccc(C)cc3)C1)C2=O	3.48 µM
O=C(c1cccc(S(=O)(=O)N2CCN(c3ccc(F)cc3)CC2)c1)N1CCCC(C(F)(F)F)C1 (configuration not stated)	0.942 µM
O=c1[nH]c2ccccc2n1C1CCN(C(CCc2ccccc2)c2nnnn2Cc2ccccc2)CC1 (configuration not stated)	1.23 µM
CCOC(=O)Cc1csc(SCC(=O)c2c(N)n(CC(C)C)c(=O)n(C)c2=O)n1	2.35 µM
Cc1ccc(C)c(S(=O)(=O)N2CCN(c3ncnc4sccc34)CC2)c1	0.631 µM
CC(=O)N(CCc1ccccc1)c1ccc2c(c1)C1CC2CCN1C(=O)OCc1ccccc1 (configuration not stated)	14.3 µM
CCOC(=O)N1CCN(S(=O)(=O)c2ccc(C(=O)Nc3nc4ccc(F)cc4s3)cc2)CC1	4.79 µM
COc1ccccc1NC(=O)Cc1nn(C)c(=O)c2ccccc12	1.97 µM
O=c1[nH]c2ccccc2n1C1CCN(C(c2cccs2)c2nnnn2Cc2ccccc2)CC1 (configuration not stated)	2.98 µM
COCCC1CCCCN1C(=O)c1cc(COc2ccc(-n3cncn3)cc2)on1 (configuration not stated)	0.57 µM
O=C(CN(C(=O)c1ccccc1Cl)C1CCCCC1)Nc1ccc(Cl)c([N+](=O)[O-])c1	5.1 µM
CCc1nnc(NC(=O)c2nc(S(=O)(=O)Cc3ccccc3)ncc2Cl)s1	2.72 µM
CC(NC(=O)c1cc(COc2ccc3ncccc3c2)on1)c1ccc(F)cc1 (configuration not stated)	2.28 µM
COc1ccc(NS(=O)(=O)c2ccc(-c3cnc(C4CC4)o3)cc2)cc1OC	1.33 µM
CCCCCn1c(=O)c(C(=O)NC(C)c2ccccc2)c(O)c2ccccc21 (configuration not stated)	11.7 µM

SMILES	AC50
COC(=O)C1=C(c2ccc(OCc3ccccc3)cc2)C[C@@H]2CC[C@H]1N2C(=O)NCc1ccc(OC)c(OC)c1	19.7 µM
CCN1CCN(Cc2ccc(NC(=O)c3ccc(C)c(NC(=O)C(=O)c4c[nH]c5ccccc45)c3)cc2C(F)(F)F)CC1	7.49 µM
O=C(Nc1nc(-c2ccccn2)cs1)c1cccc(-n2cnnn2)c1	2.58 µM
CC(C)(C)c1ccc(C(=O)NCCCN2CCN(CCCNC(=O)c3ccc(C(C)(C)C)cc3)CC2)cc1	4.84 µM
COCCOc1nc2c(c(=O)n(C)c(=O)n2C)n1Cc1cccc(OC)c1	2.23 µM
CC(=O)c1cn(Cc2ccccc2F)c2ccccc12	2.96 µM
CCOC(=O)c1c2c(n(C)c1C)C(=O)C(=O)c1ccc(Br)cc1-2	1.01 µM
CC(Sc1nc2ccccc2c(=O)n1C)C(=O)N(C)C1CCCCC1 (configuration not stated)	2.27 µM
Cc1cc(C2=NNC(=NC3CC3)SC2)c(C)n1-c1ccccc1F	< 0.26 µM
COc1cc(C)c(C(=O)CC(=O)c2c(C)cc(OC)cc2C)c(C)c1	7.4 µM
O=C(OCCN1C(=O)c2cccc3c(N4CCOCC4)ccc(c23)C1=O)c1ccccc1Cl	3.06 µM
COc1ccc(-c2nc(CN3CCN(c4ncnc5ccccc45)CC3)c(C)o2)c(OC)c1	6.38 µM
COc1ccc([C@H]2CC(=O)C=C(c3ccc(F)cc3OCc3ccccc3)C2)cc1OC	7.36 µM
Cc1nc2ccc(NS(=O)(=O)c3ccc4c(c3)OCCO4)cc2s1	0.635 µM
CC(=O)c1c(C)[nH]c(C(=O)OCC(=O)Nc2ccc(Cl)cc2[N+](=O)[O-])c1C	0.325 µM
COc1ccc(-c2noc(CCCCC(=O)N3CCN(c4cc(C)ccc4C)CC3)n2)cc1	1.75 µM
O=C(NCc1cccnc1)/C(=C\c1ccc(-c2ccc(Br)cc2)o1)S(=O)(=O)c1ccccc1	6.33 µM
O=C(Nc1ccc([N+](=O)[O-])cc1)Nc1nc(-c2ccc(Cl)s2)cs1	3.19 µM
C=C1C(=O)O[C@@H]2C[C@@H](C)[C@@H]3C=CC(=O)[C@@]3(C)[C@@H](O)[C@H]12	0.825 µM
CNc1ccccc1C(C)(C)c1cc(-c2cccc(Br)c2)no1	2 µM
C=C(C)[C@@H]1C2=CC(C(=O)OC)=C(C[C@H](C(=C)C)[C@H]3O[C@H]3C3=C[C@H]1OC3=O)O2	8.16 µM
CC1=C(C#N)C(C(F)(F)F)(C(F)(F)F)N=C(c2ccco2)N1	7.72 µM
Cc1c(CCCl)c(Cl)n2c(nc3ccccc32)c1C#N	0.912 µM
Cc1ccc(C(=O)NC2CCCc3c2cnn3-c2ccc(F)cc2F)cn1 (configuration not stated)	0.921 µM
